Assay type in all cases: biochemical
Experiment [1] deals with T1, cloned human δ opioid receptor (Homo sapiens, UniProt P41143).
T1 construct: expressed in transfected cells
The experiment can be described thus: Inhibition of DPDPE-stimulated [35S]GTPγS binding. The following applies: read-out: δ, DPDPE Ke. The text has this:
(§1) Measures of opioid receptor antagonism and specificity were obtained by monitoring the ability of selected test compounds to inhibit stimulation of [^35S]GTPγS binding produced by the selective agonists (D-Ala^2, MePhe^4, Gly-ol^5)enkephalin (DAMGO, mu receptor), cyclo[D-Pen^2, D-Pen^5]enkephalin (DPDPE, delta) and 5,7,8-(−)-N-methyl-N-[7-(1-pyrrolidinyl)-1-oxaspiro[4,5]dec-8-yl]benzeneacetamide (U69,593, kappa) in cloned human receptors, Table 1.

In experiment [2] the target is T2, cloned human μ opioid receptor (Homo sapiens, UniProt P35372).
T2 construct: expressed in transfected cells
Kind of experiment: Inhibition of DAMGO-stimulated [35S]GTPγS binding.
Source text: as §1

Experiment [3] deals with T3, cloned human κ opioid receptor (Homo sapiens, UniProt P41145).
T3 construct: expressed in transfected cells
The experiment can be described thus: Inhibition of U69,593-stimulated [35S]GTPγS binding.
Source text: as §1
Background: Binding of GTPγS marks nucleotide exchange on a G protein.

T3 sequence (P41145 whole entry): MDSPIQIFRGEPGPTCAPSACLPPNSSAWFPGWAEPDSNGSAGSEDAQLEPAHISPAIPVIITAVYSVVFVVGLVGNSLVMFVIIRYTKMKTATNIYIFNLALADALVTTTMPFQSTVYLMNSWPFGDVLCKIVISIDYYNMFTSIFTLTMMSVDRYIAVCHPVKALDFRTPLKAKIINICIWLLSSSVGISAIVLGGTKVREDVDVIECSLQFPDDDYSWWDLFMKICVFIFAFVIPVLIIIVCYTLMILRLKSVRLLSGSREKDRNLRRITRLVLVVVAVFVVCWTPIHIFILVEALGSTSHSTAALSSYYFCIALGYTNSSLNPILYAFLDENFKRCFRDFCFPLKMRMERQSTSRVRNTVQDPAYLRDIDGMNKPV
T2 sequence (P35372 whole entry): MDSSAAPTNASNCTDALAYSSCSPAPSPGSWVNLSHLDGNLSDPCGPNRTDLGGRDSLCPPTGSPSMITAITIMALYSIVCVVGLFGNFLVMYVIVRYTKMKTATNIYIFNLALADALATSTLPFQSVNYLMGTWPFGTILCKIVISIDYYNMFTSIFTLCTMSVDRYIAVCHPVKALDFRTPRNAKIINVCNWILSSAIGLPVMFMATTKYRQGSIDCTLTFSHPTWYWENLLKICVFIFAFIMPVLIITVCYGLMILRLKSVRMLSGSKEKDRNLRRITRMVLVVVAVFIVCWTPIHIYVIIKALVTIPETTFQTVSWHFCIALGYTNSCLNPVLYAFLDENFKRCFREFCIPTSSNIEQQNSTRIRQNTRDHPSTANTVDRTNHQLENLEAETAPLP
T1 sequence (P41143 whole entry): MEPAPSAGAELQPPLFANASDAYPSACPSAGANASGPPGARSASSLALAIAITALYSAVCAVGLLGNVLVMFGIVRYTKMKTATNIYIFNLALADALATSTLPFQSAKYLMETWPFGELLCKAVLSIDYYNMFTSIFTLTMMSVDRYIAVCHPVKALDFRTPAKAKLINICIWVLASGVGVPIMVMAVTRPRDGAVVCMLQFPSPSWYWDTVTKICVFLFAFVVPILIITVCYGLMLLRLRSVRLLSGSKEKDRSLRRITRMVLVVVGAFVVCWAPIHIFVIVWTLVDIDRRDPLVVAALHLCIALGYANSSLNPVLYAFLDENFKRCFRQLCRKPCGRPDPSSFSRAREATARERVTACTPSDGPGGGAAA

As to `CC(C)[C@@H](CN1CC[C@@](C)(c2cccc(O)c2)[C@@H](C)C1)NC(=O)[C@@]1(C)Cc2ccc(O)cc2CN1` [RTI-5989-240, (3R)-7-Hydroxy-N-[(1S)-1-{[(3R,4R)-4-(3-hydroxyphenyl)-3,4-dimethylpiperidin-1-yl]methyl}-2-methylpropyl]-3-methyl-1,2,3,4-tetrahydroisoquinoline-3-carboxamide], the results for the Kb in experiment [1], in experiment [2] and in experiment [3] were 840 nM, 3.6 nM and 0.03 nM, respectively. Further, the “μ, DAMGO Ke” value in experiment [2] (inhibition of DAMGO-stimulated [35S]GTPγS binding, cloned human μ receptor) was 3.6 nM. In experiment [3] ([35S]GTPγS in vitro functional assay), the “potency for the kappa opioid receptor (in words)” value was “high potency”. Moreover, the “selectivity for the kappa opioid receptor relative to mu and delta (in words)” value in experiment [3] (functional assay) is listed as “highly selective”. In addition, the “κ, U69,593 Ke” value in experiment [3] (inhibition of U69,593-stimulated [35S]GTPγS binding, cloned human κ receptor) is given as 0.03 nM. For the same compound, the δ/κ in experiment [3] (ratio of Ke values, δ over κ) is on record as 28,000. The μ/κ in experiment [3] (ratio of Ke values, μ over κ) is listed as 120.

These data come from patent US8048895B2, “Kappa opioid receptor ligands” (priority 2008, dated 2011).
